In assay [1] the target is 5-hydroxytryptamine receptor 2A (Rattus norvegicus, UniProt P14842). Put plainly: The binding affinity at 5-hydroxytryptamine 2A receptor was determined using [3H]ketanserin.
Assay [2] has as its target T1, Serotonin 3 (5-HT3) receptor (Rattus norvegicus, UniProt P35563+Q9JJ16).
T1 sequence (P35563 whole entry): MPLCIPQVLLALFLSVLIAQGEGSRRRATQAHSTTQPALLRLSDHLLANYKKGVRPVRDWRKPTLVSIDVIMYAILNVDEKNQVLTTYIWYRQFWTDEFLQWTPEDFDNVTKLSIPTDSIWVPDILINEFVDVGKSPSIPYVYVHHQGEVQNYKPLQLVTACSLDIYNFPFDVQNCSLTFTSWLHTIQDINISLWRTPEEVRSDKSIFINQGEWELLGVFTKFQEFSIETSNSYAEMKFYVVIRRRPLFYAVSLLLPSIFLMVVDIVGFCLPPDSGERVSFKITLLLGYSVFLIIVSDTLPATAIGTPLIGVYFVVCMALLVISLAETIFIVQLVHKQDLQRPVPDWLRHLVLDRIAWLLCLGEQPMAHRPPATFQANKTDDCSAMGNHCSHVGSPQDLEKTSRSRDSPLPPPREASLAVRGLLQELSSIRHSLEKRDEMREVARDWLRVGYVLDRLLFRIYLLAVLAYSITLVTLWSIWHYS
T1 sequence (Q9JJ16 whole entry): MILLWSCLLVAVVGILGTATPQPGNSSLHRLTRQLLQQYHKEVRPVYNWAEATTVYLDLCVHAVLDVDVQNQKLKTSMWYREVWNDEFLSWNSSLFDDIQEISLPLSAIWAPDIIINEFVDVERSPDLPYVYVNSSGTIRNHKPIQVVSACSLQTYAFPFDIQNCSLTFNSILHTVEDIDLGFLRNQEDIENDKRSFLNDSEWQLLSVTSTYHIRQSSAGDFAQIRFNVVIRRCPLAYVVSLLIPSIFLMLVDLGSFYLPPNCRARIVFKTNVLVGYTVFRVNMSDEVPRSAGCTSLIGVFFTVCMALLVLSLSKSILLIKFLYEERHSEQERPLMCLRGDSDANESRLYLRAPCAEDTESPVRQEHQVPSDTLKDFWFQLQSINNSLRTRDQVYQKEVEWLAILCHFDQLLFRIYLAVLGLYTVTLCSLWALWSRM
Put plainly: The binding affinity at 5-hydroxytryptamine 3 receptor was determined using [3H]LY-278584. The class given is protein-complex assay.

The target in assay [3] is T2, Adrenergic receptor alpha-2 (Rattus norvegicus, UniProt P22086+P19328+P22909).
T2 sequence (P22086 whole entry): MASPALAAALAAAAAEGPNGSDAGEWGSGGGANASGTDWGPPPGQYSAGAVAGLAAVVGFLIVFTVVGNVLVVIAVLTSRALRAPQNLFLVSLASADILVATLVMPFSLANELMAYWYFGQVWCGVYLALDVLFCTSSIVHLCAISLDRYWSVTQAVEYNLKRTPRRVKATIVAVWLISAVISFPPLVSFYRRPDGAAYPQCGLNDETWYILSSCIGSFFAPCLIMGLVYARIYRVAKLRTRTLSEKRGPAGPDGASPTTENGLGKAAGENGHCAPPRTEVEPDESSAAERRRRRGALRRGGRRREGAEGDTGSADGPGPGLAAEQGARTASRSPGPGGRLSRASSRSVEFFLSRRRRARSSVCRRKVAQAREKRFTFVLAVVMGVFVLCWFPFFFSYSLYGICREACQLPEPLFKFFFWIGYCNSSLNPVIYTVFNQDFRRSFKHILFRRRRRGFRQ
T2 sequence (P19328 whole entry): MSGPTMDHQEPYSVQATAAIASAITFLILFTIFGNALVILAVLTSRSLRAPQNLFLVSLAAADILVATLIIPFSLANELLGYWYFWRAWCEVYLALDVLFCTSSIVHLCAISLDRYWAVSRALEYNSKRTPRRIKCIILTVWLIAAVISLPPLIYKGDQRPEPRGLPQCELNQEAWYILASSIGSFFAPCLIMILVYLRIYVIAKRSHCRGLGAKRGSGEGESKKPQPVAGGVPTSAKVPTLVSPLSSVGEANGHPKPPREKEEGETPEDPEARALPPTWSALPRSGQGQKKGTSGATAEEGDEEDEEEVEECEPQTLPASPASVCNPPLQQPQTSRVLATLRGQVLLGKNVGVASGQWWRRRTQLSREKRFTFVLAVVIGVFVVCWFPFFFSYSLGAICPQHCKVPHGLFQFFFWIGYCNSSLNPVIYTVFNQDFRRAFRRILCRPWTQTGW
T2 sequence (P22909 whole entry): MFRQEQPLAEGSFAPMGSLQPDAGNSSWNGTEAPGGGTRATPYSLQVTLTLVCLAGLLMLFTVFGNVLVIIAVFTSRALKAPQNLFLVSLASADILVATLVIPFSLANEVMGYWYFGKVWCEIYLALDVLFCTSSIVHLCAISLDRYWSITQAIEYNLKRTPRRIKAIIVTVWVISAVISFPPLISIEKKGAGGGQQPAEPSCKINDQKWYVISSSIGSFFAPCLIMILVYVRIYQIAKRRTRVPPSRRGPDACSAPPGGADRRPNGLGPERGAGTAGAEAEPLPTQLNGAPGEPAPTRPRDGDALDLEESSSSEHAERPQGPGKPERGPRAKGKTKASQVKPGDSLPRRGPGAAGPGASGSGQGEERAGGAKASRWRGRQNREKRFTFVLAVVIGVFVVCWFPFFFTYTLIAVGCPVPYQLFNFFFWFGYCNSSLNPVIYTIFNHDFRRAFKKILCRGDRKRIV
Put plainly: The binding affinity at the Alpha-2 adrenergic receptor determined using [3H]RX-821002. The class given is protein assay.

The target in the next assay is D(2) dopamine receptor (Rattus norvegicus, UniProt P61169). Kind of assay: The binding affinity at the Dopamine receptor D2 determined using [3H]spiperone.
Sequence of D(2) dopamine receptor (P61169 whole entry): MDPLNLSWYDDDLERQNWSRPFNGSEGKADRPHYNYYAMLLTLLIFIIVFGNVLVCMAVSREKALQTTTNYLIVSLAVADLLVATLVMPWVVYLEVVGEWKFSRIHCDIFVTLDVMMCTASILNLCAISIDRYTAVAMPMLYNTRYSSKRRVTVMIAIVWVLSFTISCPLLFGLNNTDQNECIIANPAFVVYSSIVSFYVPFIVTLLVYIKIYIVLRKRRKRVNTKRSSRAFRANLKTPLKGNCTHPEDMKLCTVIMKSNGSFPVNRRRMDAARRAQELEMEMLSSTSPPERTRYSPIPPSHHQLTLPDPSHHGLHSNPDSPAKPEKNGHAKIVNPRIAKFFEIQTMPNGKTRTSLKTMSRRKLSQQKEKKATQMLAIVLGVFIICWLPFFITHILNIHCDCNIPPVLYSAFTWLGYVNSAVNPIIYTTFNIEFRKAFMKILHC
In the next assay the target is T3, D(4) dopamine receptor (Homo sapiens, UniProt P21917).
T3 sequence (P21917 whole entry): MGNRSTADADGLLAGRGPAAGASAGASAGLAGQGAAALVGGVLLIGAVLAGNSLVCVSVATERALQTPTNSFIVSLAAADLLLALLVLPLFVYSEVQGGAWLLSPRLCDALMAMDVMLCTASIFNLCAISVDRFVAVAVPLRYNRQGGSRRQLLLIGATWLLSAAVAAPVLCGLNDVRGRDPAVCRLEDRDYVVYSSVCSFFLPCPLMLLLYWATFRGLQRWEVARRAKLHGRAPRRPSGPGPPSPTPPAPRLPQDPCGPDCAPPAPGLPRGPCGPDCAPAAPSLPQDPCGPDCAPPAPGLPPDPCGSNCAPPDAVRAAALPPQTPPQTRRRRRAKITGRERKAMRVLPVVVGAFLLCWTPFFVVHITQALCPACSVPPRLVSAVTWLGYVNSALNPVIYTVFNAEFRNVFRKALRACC
Put plainly: The binding affinity at the Dopamine receptor D4 determined using [3H]YM-09151-2.

Assay [4] is described as follows: The binding affinity at the Histamine H1 receptor determined using [3H]pyrilamine. Set-up: species or system Cavia porcellus.
The test system of assay [5] is Rattus norvegicus. Kind of assay: The increase in the extracellular levels of 5-HT in the rat ventral hippocampus at a dose of 2.5 mg/kg sc measured by in vivo microdialysis. The class given is functional. The note with it: route subcutaneous.
Assay [6] relates to Rattus norvegicus. Kind of assay: The increase in the extracellular levels of NA in the rat ventral hippocampus at a dose of 5.0 mg/kg sc measured by in vivo microdialysis. The class given is functional. Conditions: route subcutaneous.

Molecules are shown by their SMILES.

Sequence of 5-hydroxytryptamine receptor 2A (P14842 whole entry): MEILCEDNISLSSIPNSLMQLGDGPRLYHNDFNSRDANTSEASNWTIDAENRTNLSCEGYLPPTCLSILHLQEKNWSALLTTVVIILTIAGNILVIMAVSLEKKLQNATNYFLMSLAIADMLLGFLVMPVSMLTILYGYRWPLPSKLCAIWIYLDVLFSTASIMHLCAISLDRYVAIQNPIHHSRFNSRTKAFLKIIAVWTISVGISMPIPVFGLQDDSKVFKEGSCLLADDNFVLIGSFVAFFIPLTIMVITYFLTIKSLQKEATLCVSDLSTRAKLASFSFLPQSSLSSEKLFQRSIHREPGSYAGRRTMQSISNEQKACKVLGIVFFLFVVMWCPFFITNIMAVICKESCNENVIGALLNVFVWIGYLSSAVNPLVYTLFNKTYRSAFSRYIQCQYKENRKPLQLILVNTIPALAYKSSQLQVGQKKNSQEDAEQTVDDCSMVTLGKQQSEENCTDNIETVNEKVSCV

In the case of `COc1cccc2c1N1CCN(C)C[C@H]1c1ccccc1C2`, in assay [1], the IC50 (as a rule, the concentration that gives 50% inhibition) came out at 0.75 nM. In addition, the Ki (in general, the dissociation constant of the complex between target and ligand, obtained from inhibition or displacement) in assay [2] amounted to 1650 nM; in assay [3] it was 37 nM; at D(2) dopamine receptor it was 20 nM; on D(4) dopamine receptor, 47 nM; in assay [4] it was 14 nM. The Increase with Rattus norvegicus [5] and with Rattus norvegicus [6] was 200% throughout.

`COc1cccc2c1N1CCN(C)CC1c1ccccc1C2` (racemic) gave an IC50 in assay [1] of 0.7 nM. Moreover, the Ki in assay [2] is 2900 nM; at D(2) dopamine receptor it was 28 nM; at D(4) dopamine receptor, 92 nM. In addition, in the assay on Rattus norvegicus [6], the Increase was 200%.

With `COc1cccc2c1N1CCN(C)C[C@@H]1c1ccccc1C2`, the IC50 in assay [1] was found to be 0.55 nM. The Ki in assay [2] is above 5000 nM; in assay [3] it was 73 nM; at D(2) dopamine receptor it was 460 nM; on D(4) dopamine receptor it was 160 nM; in assay [4], 13 nM. For the same compound, the Increase in the assay with Rattus norvegicus [5] turned out to be 200%.

The values are drawn from ChEMBL document CHEMBL1135518 (J Med Chem, 2002).
